Laboratory results taken from patent publication US7906477B2 (Genspera, Inc., priority 2002, dated 2011).
Values belong to the compound of their own block, whether it stands above or below them. Square brackets hold non-standard residues; d marks the D form. Ends that are not written are not given here. Peptide text beside a SMILES is read from it. * marks the point of attachment. X1 = C/C=C(/C)C(=O)O[C@H]1C(C)=C2[C@H]([C@@H]1OC(=O)CCCCCCC)[C@@](C)(OC(C)=O)C[C@H](OC(=O)CCCCCCCCCCCN*)[C@@]1(O)[C@H]2OC(=O)[C@@]1(C)O; Tyr(3-NO2) = N[C@@H](Cc1ccc(O)c([N+](=O)[O-])c1)C(=O)O; AMC = Cc1cc(=O)oc2cc(N*)ccc12; Abz = aminobenzoic acid; Dap = NC[C@H](N)C(=O)O

Legend:
[1] = test system: hK2; assay: hK2, fluorescence-quenched peptides tested in solution; details: human, up to prolonged incubation
[2] = pharmacokinetics after single intravenous dose, plasma levels by LC/MS/MS; assay type: in vivo, mouse; details: Balb-C mice, single intravenous dose 3.67 μmoles/kg
Protocol: FIG. 9 depicts pharamacokinetic analysis of GKAFRR-L12ADT (SEQ ID NO:44) following single intravenous injection of 3.67 μmole/kg. Mice were treated in groups of 3 and then sacrificed at indicated time points. Data represent average±standard error of plasma concentrations as determined by LC-MS analysis.
Calibration standards consisted of ac-GKAFRR-L12ADT prodrug, RL12ADT or L12ADT spiked into mouse plasma and plasma samples from treated mice were analyzed by liquid chromatography coupled to a quadrupolequadripole mass spectrometer (LC/MS/MS) [PESciex API 3000]. A multistep gradient elution HPLC method was used to separate the ac-GKAFRR-L12ADT prodrug from the free RL12ADT and L12ADT with eluent A=2 mM ammonium acetate with 0.1% formic acid 1% acetic acid in deionized water and eluent B=90% acetonitrile/1% acetic acid/[…]. Samples were eluted through a Zorbax SB-C18 Rapid Resolution column (2/1×30 mm, 3.5 μm) at a flow rate of 0.3 ml/min and gradient of 100% A to 100% B over 12 minutes. Calibration was done using extracted standards of ac-GKAFRR-L12ADT added to and then extracted from mouse plasma in a range of 0.001-10 μM, and linear regression analysis was used to generate best-fit lines, from which peak areas of samples were converted to concentration of prodrug. Peak areas of RL12ADT and L12ADT were below limit of detection at all time points and, therefore, calibration was not performed. Single-dose pharmacokinetics were assessed by noncompartmental analysis (Gibaldi, M. and Perroer, D. Pharmacokinetics, 2nd edition, p. 407-409. New York, 1982) The area under the curve from time zero to infinity (AUC0-∞) was calculated with the linear trapezoidal method (Gibaldi, M. and Perroer, D. Pharmacokinetics, 2nd edition, p. 407-409. New York, 1982)). The terminal half-life (T1/2) was determined from the terminal slope (ke) on a log-linear plot of concentration versus time.
To determine pharmacokinetic parameters for the hK2-activated thapsigargin prodrug, Balb-C mice (n=3/timepoint) were treated with a single intravenous dose of 3.67 μmoles/kg of the ac-GKAFRR-L12ADT (SEQ ID NO:41) prodrug. At various time points (5, 10, 30 minutes and 1, 1.5, 2, 3, 4, 6, 12, 24 hrs) mice were sacrificed after blood was obtained by cardiac puncture. After precipitating serum proteins with acetonitrile, supernatants were evaluated by LC-MS to determine concentrations of ac-GKAFRR-L12ADT (SEQ ID NO:41), R-L12ADT and L12ADT at each time points. Areas under the curve were converted to concentrations based on a standard curve that was linear for concentrations ranging from 1 nM to 10,000 nM. […] Both RL12ADT and L12ADT were below the lower limit of detection (i.e. <1 nM) for all time points, FIG. 6.

[3] = test system: Balb-C mice; assay: in vivo toxicity, single and repeated intravenous injection; design: species or system mouse
Protocol: To determine in vivo toxicity of ac-GKAFRR-L12ADT (SEQ ID NO:41), Balb-C mice (Harlan) received a single intravenous injection of an increasing dose of prodrug. Mice were monitored for toxicity hourly for twelve hours and then daily×one week. Separate groups of three mice each received increasing doses of ac-GKAFRRL12ADT (SEQ ID NO:41). […] All animals receiving doses less than LD100 were alive and well up to 1 week after receiving a single dose. All procedures were performed according to protocols approved by the Johns Hopkins Animal Care and Use Committee.
Balb-C mice were treated in groups of 3with a single intravenous injection of increasing doses of the ac-GKAFRR-L12ADT (SEQ ID NO:41) prodrug to establish the dose that killed 100% of mice (i.e. LD100). […] All mice, however, tolerated a single intravenous dose of 3.67 μmoles/kg and this dose was then used for further dosing and pharmacokinetic studies.

[4] = plasma stability in 50% human plasma; assay type: in vitro ADME; details: 50% fresh heparinized plasma, 24 hours, room temperature, HPLC and MALDI-TOF
Protocol: FIG. 5 depicts the stability of Ac-GKAFRR-L12ADT (SEQ ID NO:41) in human plasma after a 24 hour incubation, as determined by HPLC analysis. Ac-GKAFRR-L12ADT (SEQ ID NO:41) was incubated in 50% human plasma for 24 hours at room temperature. Peak 1 represents an unidentified plasma contaminant that was also present in control plasma. Peaks 2 and 3 both represent Ac-GKAFRR-L12ADT (SEQ ID NO:41) as confirmed by MALDI-TOF mass spectrometric analysis.
Mouse plasma was obtained from cardiac puncture of anesthetized mice prior to euthanization by CO2 overdose according to protocols approved by the Johns Hopkins Animal Care and Use Committee. Human plasma was obtained from discarded, pooled, and unlabeled clinical samples. Plasma was diluted to 50% in Tris buffer (50 mM Tris-HCl, 100 mM NaCl, pH 7.8). To this, test peptides/prodrugs were added to 250 or 500 μM final concentration. After the incubation period, one volume (200 μl) of acetonitrile was added to precipitate the protein fraction and the tube was centrifuged at 14,000 for 2 min. The supernatant was analyzed by C18-HPLC and the collected peaks were analyzed by MALDI-TOF as described above.
Arginine-containing peptides are potential substrates for the wide variety of other trypsin-like proteases that are present in the blood and may have residual activity in the blood. The plasma stability of an hK2 peptide substrate may therefore be limited and this would have significant consequences related to the development of an hK2 activated prodrug. Therefore, two fluorescence quenched hK2 peptide substrates peptides were incubated in 50% mouse or human plasma (diluted in PBS buffer) to determine stability using a plate-reader. As observed with arginine containing peptides from the SPOT analysis above, none of the arginine-containing, fluorescence quenched hK2peptide substrates were stable in human or mouse plasma. Fluorescence-quenched Y′GKAFRR-Dap-GK′ (SEQ ID NO:42) and Y′GKAFRRLGK′ (SEQ ID NO:21) (500 μM each) were hydrolyzed when incubated in 50% mouse or human plasma (FIG. 7). Mouse plasma degraded the peptides faster than human plasma (FIG. 7). […] In human plasma, more peptide remained after 3 hours (˜25%). […] The proteolytic activity from plasma was never affected by repeated freeze-thaw cycles or by storage of the mouse plasma alone at room temperature for several days.
To determine the plasma stability for the hK2 prodrug, the prodrug was incubated in 50% fresh heparinized (1%) plasma for 24 hours at room temperature, precipitated the proteins by adding one volume of 1% TFA in acetonitrile and analyzed the supernatant by HPLC. Unexpectedly, BPLC analysis after 24 hrs incubation in plasma yielded only a single peak corresponding to the hK2 prodrug (FIG. 5). MALDI-TOF MS of the isolated single peak confirmed the stability of the molecule.

[5] = target: T1, hK2 (Homo sapiens, UniProt P20151); assay: on-bead digestion of PEGA-bound fluorescence-quenched peptides by hK2; assay type: biochemical; details: 4 μg/ml hK2, PEGA resin
T1 construct: made in house
T1 sequence (P20151 25-261): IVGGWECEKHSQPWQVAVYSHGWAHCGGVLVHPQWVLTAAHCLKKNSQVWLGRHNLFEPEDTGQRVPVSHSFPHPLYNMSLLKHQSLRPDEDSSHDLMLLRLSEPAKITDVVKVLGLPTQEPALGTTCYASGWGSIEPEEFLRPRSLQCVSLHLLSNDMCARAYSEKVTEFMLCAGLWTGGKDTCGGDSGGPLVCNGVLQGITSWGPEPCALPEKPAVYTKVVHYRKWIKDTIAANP
Protocol: For screening, approximately 1 ml of resin (˜65,000 beads) was first suspended in methanol in a Petri dish and examined under transilluminant UV light (302 nm) to detect any falsely positive fluorescent beads prior to addition of protease. After removal of ˜40-50 beads, the resin was washed with water and finally suspended in 10 ml buffer in a glass Petri dish. After a final screen for false-positives, hK2 was added from a frozen stock solution to make 4 μg/ml final. Fluorescent beads were selected and removed with a micropipette, washed with 1 M NaCl, water, DMF, MeOH, water and stored in MeOH at −20° C.
Additionally, Walle and co-workers (Thorpe, D. S. and Walle, S. (2000) Biochem. Biophys. Res. Commun. 269:591-595) published data from a small combinatorial library to find linkers for the optimal display of peptide ligands to various protein targets. They reported that the insertion of a dipeptide consisting of a cationic residue together with a hydrophobic residue presents a general method for optimizing peptide display on solid phase beads. […] The test peptide Y′GKAFRL-Dap-F-K′-PEGA (SEQ ID NO:53) was synthesized and observed that the time required to generate clearly detectable fluorescence on the beads was reduced to 4-5 hours compared to 10-12 hours for the same peptide sequence lacking the Dap-F linker. […]

[6] = test system: human prostate cancer cells; details: human prostate cancer cells in vitro; cited from earlier work
[7] = test system: Cathepsin B; assay: Cathepsin B, 1 μg/ml
[8] = test system: Cathepsin D; assay: Cathepsin D, 1 μg/ml
[9] = test system: Plasmin; assay: Plasmin, 1 μg/ml
[10] = test system: Urokinase; assay: Urokinase, 1 μg/ml
[11] = test system: hK2; assay: hK2 (4 μg/ml) in 50 mM Tris, 0.1 M NaCl, pH 7.8; details: human, room temperature, up to 24 hours
[12] = 50% fresh heparinized (1%) plasma; 50% human plasma; details: room temperature, up to 24 hours
[13] = test system: hK2; assay: 8 μg/ml hK2 in PBS buffer; details: human
[14] = target: T1, hK2; details: previously reported; cited from earlier work
[15] = five consecutive daily intravenous injections of 3.67 μmoles/kg

Compound: Y′GSKGPFKL-Dap-K′
not cleaved [1]: not digested by hK2, even after prolonged incubation

Compound: C/C=C(/C)C(=O)O[C@H]1C(C)=C2[C@H]([C@@H]1OC(=O)CCCCCCC)[C@@](C)(OC(C)=O)C[C@H](OC(=O)CCCCCCCCCCCNC(=O)[C@H](CC(C)C)NC(=O)[C@H](CCCNC(=N)N)NC(=O)[C@H](CCCNC(=N)N)NC(=O)[C@H](Cc1ccccc1)NC(=O)[C@H](C)NC(=O)[C@H](CCCCN)NC(=O)CNC(C)=O)[C@@]1(O)[C@H]2OC(=O)[C@@]1(C)O [ac-GKAFRR-L12ADT] (Ac-GKAFRRL-X1)
stability in the serum in vivo (in words) [2]: highly stable to hydrolysis in the serum in vivo
half-life ([2]; mouse, plasma): 40.7 ± 1.2 min
AUC(0-inf) ([2]; mouse, plasma, read-out: area under the curve (converted)): 40.7 µM·h
Cmax ([2]; mouse, plasma): 36.8 ± 7.2 µM
single intravenous dose tolerated by all mice ([3]; Balb-C mice, single intravenous dose): 3.67 µmol/kg
toxicity of repeated dosing (in words) [3, 15]: without any deaths or observable toxicity
weight loss over baseline [3, 15]: < 15%
plasma stability of the prodrug (in words) [4]: No degradation products could be identified

incubation time to yield clearly detectable fluorescent beads [5]: 10 to 12 h
Compound: Y′GKAFRLK′-PEGA: test hK2 peptide substrate on PEGA resin ([Tyr(3-NO2)]GKAFRLK(Abz)-{PEGA resin})

Compound: CC=C(C)C(=O)OC1C(C)=C2C(C1OC(=O)CCCCCCC)C(C)(OC(C)=O)CC(OC(=O)CCCCCCCCCCCNC(=O)C(N)CC(C)C)C1(O)C2OC(=O)C1(C)O [L12ADT, 8-O-(12-[L-leucinoylamino]dodecanoyl)-8-O-debutanoylthapsigargin]
LD50 [6]: ~30 nM

Compound: Abz-GKAFRRLY′
not cleaved [7]: No appreciable hydrolysis; relative rate 1 (approximately 0.1% digestion in 1 hour)
not cleaved [8]: No appreciable hydrolysis; relative rate 1 (approximately 0.1% digestion in 1 hour)

incubation time to yield clearly detectable fluorescent beads [5]: 4 to 5 h
Compound: Y′GKAFRL-Dap-F-K′-PEGA: test peptide on PEGA resin with Dap-F linker ([Tyr(3-NO2)]GKAFRL[Dap]FK(Abz)-{PEGA resin})

Compound: Y′GSKGHFKL-Dap-K′
not cleaved [1]: not digested by hK2, even after prolonged incubation

cleaved bond [9]: arginine-arginine
cleaved bond [11]: Arg-Leu
Compound: Ac-GKAFRR-L12ADT
not cleaved [7]: No appreciable hydrolysis; relative rate 1 (approximately 0.1% digestion in 1 hour)
not cleaved [10]: no activity on the prodrug; relative rate 1 (approximately 0.1% digestion in 1 hour)
not cleaved [12]: only a single peak corresponding to the hK2 prodrug after 24 hrs; no degradation products
not cleaved [8]: No appreciable hydrolysis; relative rate 1 (approximately 0.1% digestion in 1 hour)

not cleaved [13]: did not show any hydrolysis
Compound: Y′GSKGHFKL-Dap-F-K′

Compound: Pro-Phe-Arg-{AMC}
Km [14]: 40 µM
kcat [14]: 0.92 s⁻¹
